PubChem BioAssay AID248 (DTP/NCI, 2004)
Toxic doses and inconclusive results are not listed.

Test system: L1210 leukemia ip in BDF1 mice, survival T/C
Experiment: NCI In Vivo Anticancer Drug Screen. Data for tumor model L1210 Leukemia (intraperitoneal) in B6D2F1 (BDF1) mice
Settings: endpoint: mean survival time, higher = longer survival
Method in brief: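 Tumor was transplanted into mice, which were then dosed with test compound or vehicle alone. Survival was recorded for each group, and the treated figure was expressed relative to the control figure.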

[1] = dose: 100.0 mg/kg/injection, schedule: Q01DX001 (ip), vehicle: saline
[2] = dose: 200.0 mg/kg/injection, schedule: Q01DX001 (ip), vehicle: saline
[3] = dose: 400.0 mg/kg/injection, schedule: Q01DX001 (ip), vehicle: saline
[4] = dose: 100.0 mg/kg/injection, schedule: Q04DX002 (ip), vehicle: saline with Tween-80
[5] = dose: 200.0 mg/kg/injection, schedule: Q04DX002 (ip), vehicle: saline with Tween-80
[6] = dose: 400.0 mg/kg/injection, schedule: Q04DX002 (ip), vehicle: saline with Tween-80
[7] = dose: 100.0 mg/kg/injection, schedule: Q01DX001 (ip), vehicle: carboxymethylcellulose (CMC)
[8] = dose: 200.0 mg/kg/injection, schedule: Q01DX001 (ip), vehicle: carboxymethylcellulose (CMC)
[9] = dose: 400.0 mg/kg/injection, schedule: Q01DX001 (ip), vehicle: carboxymethylcellulose (CMC)
[10] = dose: 100.0 mg/kg/injection, schedule: Q01DX001 (ip), vehicle: Klucel (hydroxypropylcellulose) (HPC)
[11] = dose: 200.0 mg/kg/injection, schedule: Q01DX001 (ip), vehicle: Klucel (hydroxypropylcellulose) (HPC)
[12] = dose: 400.0 mg/kg/injection, schedule: Q01DX001 (ip), vehicle: Klucel (hydroxypropylcellulose) (HPC)

SMILES: Cc1ccc(C(=O)Oc2ccc(N=C=S)cc2)cc1
- T/C (dose: 75.0 mg/kg/injection, schedule: Q01DX001 (ip), vehicle: carboxymethylcellulose (CMC)): 88 % of control
- T/C (dose: 150.0 mg/kg/injection, schedule: Q01DX001 (ip), vehicle: carboxymethylcellulose (CMC)): 90 % of control
- T/C (dose: 300.0 mg/kg/injection, schedule: Q01DX001 (ip), vehicle: carboxymethylcellulose (CMC)): 87 % of control

SMILES: O=C1C=C(NCCCCC2CCCCC2)c2ccccc2C1=O
- T/C [1]: 95 % of control
- T/C [2]: 97 % of control
- T/C [3]: 91 % of control

SMILES: CC(=O)Nc1ccc(S(=O)(=O)NC2(c3ccccc3)C(=O)N(C)C(=O)N(C)C2=O)cc1
- T/C [1]: 91 % of control
- T/C [2]: 94 % of control
- T/C [3]: 103 % of control

SMILES: CCCCCCCCCCCCCCOS(=O)(=O)O
- T/C (dose: 37.5 mg/kg/injection, schedule: Q04DX003 (ip), vehicle: saline): 100 % of control
- T/C (dose: 75.0 mg/kg/injection, schedule: Q01DX001 (ip), vehicle: saline): 95 % of control
- T/C (dose: 75.0 mg/kg/injection, schedule: Q04DX003 (ip), vehicle: saline): 94 % of control
- T/C (dose: 150.0 mg/kg/injection, schedule: Q01DX001 (ip), vehicle: saline): 92 % of control
- T/C (dose: 150.0 mg/kg/injection, schedule: Q04DX003 (ip), vehicle: saline): 92 % of control

SMILES: C=C(Br)CNC(=O)NCCN1CCOCC1
- T/C (dose: 100.0 mg/kg/injection, schedule: Q04DX003 (ip), vehicle: saline with Tween-80): 97 % of control
- T/C (dose: 200.0 mg/kg/injection, schedule: Q04DX003 (ip), vehicle: saline with Tween-80): 111 % of control
- T/C (dose: 400.0 mg/kg/injection, schedule: Q04DX003 (ip), vehicle: saline with Tween-80): 97 % of control

SMILES: CCCNC(=O)Oc1ccc(-c2ccccc2)cc1Cl
- T/C [4]: 113 % of control
- T/C [5]: 100 % of control
- T/C [6]: 97 % of control

SMILES: C/C=C(/C)c1ccccc1
- T/C [7]: 95 % of control
- T/C [8]: 95 % of control
- T/C [9]: 95 % of control

SMILES: O=[N+]([O-])c1ccc(/C=N/Nc2nnc(N/N=C/c3ccc([N+](=O)[O-])cc3)c3ccccc23)cc1
- T/C (dose: 50.0 mg/kg/injection, schedule: Q01DX001 (ip), vehicle: carboxymethylcellulose (CMC)): 93 % of control
- T/C [7]: 101 % of control
- T/C [8]: 93 % of control
- T/C [9]: 98 % of control

SMILES: CCCCn1cnc(=O)c2[nH]cnc21
- T/C (dose: 3.12 mg/kg/injection, schedule: Q01DX009 (ip), vehicle: saline): 90 % of control
- T/C (dose: 6.25 mg/kg/injection, schedule: Q01DX009 (ip), vehicle: saline): 94 % of control
- T/C (dose: 12.5 mg/kg/injection, schedule: Q01DX009 (ip), vehicle: saline): 95 % of control
- T/C (dose: 25.0 mg/kg/injection, schedule: Q01DX001 (ip), vehicle: saline): 98 % of control
- T/C (dose: 25.0 mg/kg/injection, schedule: Q04DX003 (ip), vehicle: saline): 96 % of control
- T/C (dose: 50.0 mg/kg/injection, schedule: Q01DX001 (ip), vehicle: saline): 96 % of control
- T/C (dose: 50.0 mg/kg/injection, schedule: Q01DX009 (ip), vehicle: saline): 97 % of control
- T/C (dose: 50.0 mg/kg/injection, schedule: Q04DX003 (ip), vehicle: saline): 105 % of control
- T/C [1]: 100 % of control
- T/C (dose: 100.0 mg/kg/injection, schedule: Q01DX009 (ip), vehicle: saline): 87 % of control
- T/C (dose: 100.0 mg/kg/injection, schedule: Q04DX003 (ip), vehicle: saline): 107 % of control

SMILES: Oc1c(Br)cc(-c2ccccc2)cc1Br
- T/C (dose: 100.0 mg/kg/injection, schedule: Q04DX002 (ip), vehicle: gum acacia): 95 % of control
- T/C (dose: 200.0 mg/kg/injection, schedule: Q04DX002 (ip), vehicle: gum acacia): 95 % of control
- T/C (dose: 400.0 mg/kg/injection, schedule: Q04DX002 (ip), vehicle: gum acacia): 103 % of control

SMILES: Cc1cc(NCCN(C(C)C)C(C)C)nc(/N=C(\N)Nc2ccc(Cl)c(C(F)(F)F)c2)n1
- T/C (dose: 1.25 mg/kg/injection, schedule: Q01DX009 (ip), vehicle: Klucel (hydroxypropylcellulose) (HPC)): 109 % of control
- T/C (dose: 2.5 mg/kg/injection, schedule: Q01DX009 (ip), vehicle: Klucel (hydroxypropylcellulose) (HPC)): 104 % of control
- T/C (dose: 5.0 mg/kg/injection, schedule: Q01DX009 (ip), vehicle: Klucel (hydroxypropylcellulose) (HPC)): 107 % of control
- T/C (dose: 9.37 mg/kg/injection, schedule: Q01DX009 (ip), vehicle: Klucel (hydroxypropylcellulose) (HPC)): 98 % of control
- T/C (dose: 10.0 mg/kg/injection, schedule: Q01DX009 (ip), vehicle: Klucel (hydroxypropylcellulose) (HPC)): 102 % of control
- T/C (dose: 18.75 mg/kg/injection, schedule: Q01DX009 (ip), vehicle: Klucel (hydroxypropylcellulose) (HPC)): 96 % of control
- T/C (dose: 20.0 mg/kg/injection, schedule: Q01DX009 (ip), vehicle: Klucel (hydroxypropylcellulose) (HPC)): 98 % of control
- T/C (dose: 75.0 mg/kg/injection, schedule: Q01DX001 (ip), vehicle: other): 103 % of control
- T/C (dose: 75.0 mg/kg/injection, schedule: Q04DX003 (ip), vehicle: Klucel (hydroxypropylcellulose) (HPC)): 100 % of control
- T/C (dose: 150.0 mg/kg/injection, schedule: Q01DX001 (ip), vehicle: other): 98 % of control
- T/C (dose: 150.0 mg/kg/injection, schedule: Q04DX003 (ip), vehicle: Klucel (hydroxypropylcellulose) (HPC)): 100 % of control
- T/C (dose: 300.0 mg/kg/injection, schedule: Q01DX001 (ip), vehicle: other): 110 % of control
- T/C (dose: 300.0 mg/kg/injection, schedule: Q04DX003 (ip), vehicle: Klucel (hydroxypropylcellulose) (HPC)): 105 % of control

SMILES: CC(C)(CO)NC(=O)CC1CCCCC1
- T/C (dose: 100.0 mg/kg/injection, schedule: Q01DX009 (ip), vehicle: saline with Tween-80): 96 % of control
- T/C (dose: 200.0 mg/kg/injection, schedule: Q01DX009 (ip), vehicle: saline with Tween-80): 97 % of control
- T/C (dose: 400.0 mg/kg/injection, schedule: Q01DX009 (ip), vehicle: saline with Tween-80): 97 % of control

SMILES: COC(=O)C(CCC#N)(CCC#N)C(C)=O
- T/C [10]: 96 % of control
- T/C [11]: 91 % of control
- T/C [12]: 89 % of control

SMILES: COC(=O)C1CCC2C3CCC4CC(O)CCC4(C)C3CCC12C (stereo unspecified)
- T/C [10]: 110 % of control
- T/C [11]: 100 % of control
- T/C [12]: 95 % of control

SMILES: NC(=O)NCc1ccc(CNC(N)=O)cc1
- T/C [4]: 98 % of control
- T/C [5]: 98 % of control
- T/C [6]: 115 % of control

SMILES: O=C(N/N=C/c1ccc(Cl)c(Cl)c1)c1cccc2ccccc12
- T/C [1]: 87 % of control
- T/C [3]: 90 % of control

SMILES: CN=C(NC)N/N=C(C)\C=N\NC(=NC)NC
- T/C (dose: 1.0 mg/kg/injection, schedule: Q01DX Z (ip), vehicle: methylcellulose (MC)): 103 % of control
- T/C (dose: 2.0 mg/kg/injection, schedule: Q01DX Z (ip), vehicle: methylcellulose (MC)): 92 % of control
- T/C (dose: 4.0 mg/kg/injection, schedule: Q01DX Z (ip), vehicle: methylcellulose (MC)): 101 % of control
- T/C (dose: 8.0 mg/kg/injection, schedule: Q01DX Z (ip), vehicle: methylcellulose (MC)): 104 % of control
- T/C (dose: 15.0 mg/kg/injection, schedule: Q01DX Z (ip), vehicle: saline): 107 % of control
- T/C (dose: 15.0 mg/kg/injection, schedule: Q01DX Z (oral), vehicle: methylcellulose (MC)): 104 % of control
- T/C (dose: 30.0 mg/kg/injection, schedule: Q01DX Z (ip), vehicle: methylcellulose (MC)): 160 % of control
- T/C (dose: 30.0 mg/kg/injection, schedule: Q01DX Z (ip), vehicle: saline): 97 % of control
- T/C (dose: 30.0 mg/kg/injection, schedule: Q01DX Z (oral), vehicle: methylcellulose (MC)): 96 % of control
- T/C (dose: 60.0 mg/kg/injection, schedule: Q01DX Z (ip), vehicle: saline): 103 % of control
- T/C (dose: 60.0 mg/kg/injection, schedule: Q01DX Z (oral), vehicle: methylcellulose (MC)): 107 % of control
- T/C (dose: 120.0 mg/kg/injection, schedule: Q01DX Z (ip), vehicle: saline): 96 % of control
- T/C (dose: 120.0 mg/kg/injection, schedule: Q01DX Z (oral), vehicle: methylcellulose (MC)): 104 % of control
- T/C (dose: 240.0 mg/kg/injection, schedule: Q01DX Z (ip), vehicle: saline): 100 % of control
- T/C (dose: 240.0 mg/kg/injection, schedule: Q01DX Z (oral), vehicle: methylcellulose (MC)): 95 % of control
- T/C (dose: 480.0 mg/kg/injection, schedule: Q01DX009 (oral), vehicle: saline): 94 % of control
- T/C (dose: 480.0 mg/kg/injection, schedule: Q01DX Z (oral), vehicle: methylcellulose (MC)): 96 % of control
- T/C (dose: 960.0 mg/kg/injection, schedule: Q01DX009 (oral), vehicle: saline): 94 % of control
